A word on the pIC50: it is the IC50 on a negative log10 scale, so that one unit is a factor of ten.

Here are results for nine compounds from patent US20240246967A1, “AXL COMPOUNDS” (ARCUS BIOSCIENCES, INC., priority 2021, published 2024).

Test [1] deals with T1, Axl (Homo sapiens, UniProt P30530).
T1 sequence (P30530 26-894): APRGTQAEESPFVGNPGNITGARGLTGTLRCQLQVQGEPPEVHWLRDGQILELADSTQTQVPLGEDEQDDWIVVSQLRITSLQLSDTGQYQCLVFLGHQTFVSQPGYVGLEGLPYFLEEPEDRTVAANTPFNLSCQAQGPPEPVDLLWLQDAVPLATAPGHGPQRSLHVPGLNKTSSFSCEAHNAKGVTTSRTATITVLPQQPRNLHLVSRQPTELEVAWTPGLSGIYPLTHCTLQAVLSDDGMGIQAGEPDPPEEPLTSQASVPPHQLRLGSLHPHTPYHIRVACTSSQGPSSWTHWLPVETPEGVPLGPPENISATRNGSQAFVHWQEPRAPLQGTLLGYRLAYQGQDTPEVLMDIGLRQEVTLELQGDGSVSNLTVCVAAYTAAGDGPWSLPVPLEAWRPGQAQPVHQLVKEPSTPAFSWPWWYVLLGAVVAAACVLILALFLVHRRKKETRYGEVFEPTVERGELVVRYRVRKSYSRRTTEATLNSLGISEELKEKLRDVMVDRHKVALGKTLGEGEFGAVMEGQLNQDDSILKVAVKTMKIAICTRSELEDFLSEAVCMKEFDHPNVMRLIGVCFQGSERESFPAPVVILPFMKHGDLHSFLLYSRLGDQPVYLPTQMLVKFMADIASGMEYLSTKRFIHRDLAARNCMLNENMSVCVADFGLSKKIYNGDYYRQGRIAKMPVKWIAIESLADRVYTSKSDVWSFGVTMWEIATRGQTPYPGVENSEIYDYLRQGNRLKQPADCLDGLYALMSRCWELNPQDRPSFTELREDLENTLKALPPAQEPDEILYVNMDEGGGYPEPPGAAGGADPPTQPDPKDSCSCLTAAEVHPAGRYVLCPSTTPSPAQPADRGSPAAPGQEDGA
Description: HTRF KinEASE-TK biochemical potency assay, AXL. The settings on record: 5 nM AXL, 700 μM ATP, 800 nM TK Substrate-biotin. Set-up: purchased Invitrogen. A digest of the protocol: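 HTRF 665/620 nm read-out after streptavidin-XL665/anti-phosphotyrosine cryptate detection (1 h RT). Final reaction: 5 nM AXL or 1 nM TYRO3/MER, 800 nM TK substrate-biotin, 700 μM ATP, pH 7.4 HEPES buffer, 1% DMSO, 2 h RT, after 1 h enzyme–compound preincubation.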
A general note: In TR-FRET formats the signal depends on donor and acceptor labels being close together.

Test [2] deals with T1, Axl. Kind of test: Axl NanoBRET intracellular kinase assay (intracellular binding, Cell Binding). Details: host or cells: HEK-293. The settings on record: HEK-293 cells transfected with Axl-NanoLuc fusion vector; 0.35 μM K-5 NanoBRET tracer. In outline:
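HEK-293 cells transiently transfected with Axl-NanoLuc fusion the day before were pre-incubated with compound for 1 h at 37 °C, 5% CO2 (0.5% DMSO), then with 0.35 μM K-5 NanoBRET tracer for 2 h. Tracer displacement was read as the 610/450 nm BRET ratio; IC50 from 4-parameter fit.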
In general terms: In BRET a luciferase serves as donor, and the signal depends on an acceptor being close.

pIC50: −log10 of the molar value.

Turning to `CS(=O)(=O)c1ccc(-c2n[nH]c3ncc(-c4ccc5c(c4)CCN(C4CCCC4)CC5)cc23)cc1F` [Example 32, 3-Cyclopentyl-7-(3-(3-fluoro-4-(methylsulfonyl)phenyl)-1H-pyrazolo[3,4-b]pyridin-5-yl)-2,3,4,5-tetrahydro-1H-benzo[d]azepine], the pIC50 against Axl [1] was above 7.00; at Axl [2], 6.00 to 7.00.

Take `Cc1cc(-c2n[nH]c3ncc(-c4ccc5c(c4)CCN(C(=O)C(C)C)CC5)cc23)ccc1C(=O)N1CCNCC1` [Example 48, 2-Methyl-1-(7-{3-[3-methyl-4-(piperazine-1-carbonyl)phenyl]-1H-pyrazolo[3,4-b]pyridin-5-yl}-2,3,4,5-tetrahydro-1H-3-benzazepin-3-yl)propan-1-one]: the negative logarithm of the IC50 (pIC50) against Axl [1] was above 7.00; on Axl [2] it was 6.00 to 7.00.

As to `CS(=O)(=O)c1ccc(-c2n[nH]c3ncc(-c4ccc5c(c4)CCN(C4CCCC4)CC5)cc23)cc1Cl` [Example 31, 7-(3-(3-Chloro-4-(methylsulfonyl)phenyl)-1H-pyrazolo[3,4-b]pyridin-5-yl)-3-cyclopentyl-2,3,4,5-tetrahydro-1H-benzo[d]azepine], the values for the pIC50 on Axl [1] and at Axl [2] were above 7.00 and 6.00 to 7.00, respectively.

Take `COc1cc(-c2n[nH]c3ncc(-c4ccc5c(c4)CCC(C)(N4CCC[C@H]4C)CC5)cc23)ccc1OC[C@H]1COCCO1` (stereo partly drawn) [Example 114, (2R)-1-{2-[3-(4-{[(2R)-1,4-Dioxan-2-yl]methoxy}-3-methoxyphenyl)-1H-pyrazolo[3,4-b]pyridin-5-yl]-7-methyl-6,7,8,9-tetrahydro-5H-benzo[7]annulen-7-yl}-2-methylpyrrolidine]: the pIC50 against Axl [1] and at Axl [2] was above 7.00 throughout.

`CC(C)(O)c1ccc(-c2n[nH]c3ncc(-c4cc5c(cn4)CCC(N4CCCC4)CC5)cc23)cc1Cl` (stereo not drawn) [Example 59, 2-(2-Chloro-4-{5-[7-(pyrrolidin-1-yl)-5H,6H,7H,8H,9H-cyclohepta[c]pyridin-3-yl]-1H-pyrazolo[3,4-b]pyridin-3-yl}phenyl)propan-2-ol]: the pIC50 against Axl [1] and on Axl [2] was above 7.00 throughout.

Regarding `C[C@H]1CCCN1C1(C)CCc2ccc(-c3cnc4[nH]nc(-c5ccc(S(=O)(=O)C6CC6)cc5)c4c3)cc2CC1` (stereo partly drawn) [Example 5, (2S)-1-(2-{3-[4-(Cyclopropanesulfonyl)phenyl]-1H-pyrazolo[3,4-b]pyridin-5-yl}-7-methyl-6,7,8,9-tetrahydro-5H-benzo[7]annulen-7-yl)-2-methylpyrrolidine], the pIC50 against Axl [1] and at Axl [2] was above 7.00 throughout.

As for `C[C@H]1CCCN1C1CCc2ccc(-c3cnc4[nH]nc(-c5ccc(S(C)(=O)=O)cc5)c4c3)cc2CC1` (stereo partly drawn) [Example 36, 5-(7-((S)-2-Methylpyrrolidin-1-yl)-6,7,8,9-tetrahydro-5H-benzo[7]annulen-2-yl)-3-(4-(methylsulfonyl)phenyl)-1H-pyrazolo[3,4-b]pyridine], the pIC50 at Axl [1] and at Axl [2] was above 7.00 in each case.

`C[C@@H]1CCCN1C1(C)CCc2ccc(-c3cnc4[nH]nc(-c5ccc(C(N)=O)cc5)c4c3)cc2CC1` (stereo partly drawn) [Example 54, 4-(5-(7-Methyl-7-((R)-2-methylpyrrolidin-1-yl)-6,7,8,9-tetrahydro-5H-benzo[7]annulen-2-yl)-1H-pyrazolo[3,4-b]pyridin-3-yl)benzamide]: the pIC50 against Axl [1] and on Axl [2] was above 7.00 each time.

On to `O=C([C@@H]1CCCN1)N1CCc2ccc(-c3cnc4[nH]nc(-c5ccc(S(=O)(=O)C6CC6)cc5)c4c3)cc2CC1` [Example 112, 7-{3-[4-(Cyclopropanesulfonyl)phenyl]-1H-pyrazolo[3,4-b]pyridin-5-yl}-3-[(2S)-pyrrolidine-2-carbonyl]-2,3,4,5-tetrahydro-1H-3-benzazepine], for which the negative logarithm of the IC50 (pIC50) on Axl [1] is above 7.00; at Axl [2], 6.00 to 7.00.
